# Measurements from patent EP4748833A1, “AMPK AGONIST AND USE THEREOF” (priority 2023, dated 2025).
# Where two headings read alike, the source gives them in different places.
# Target: T1, AMPKα1β1γ1 (Homo sapiens, UniProt Q13131+Q9Y478)
# T1 construct: purchased CARNA 02-113
# Experiment: In vitro assay for AMPK (α1β1γ1) enzyme agonist activity (TR-FRET)
# Assay type: biochemical
# Conditions: for Emax: 1 h, read-out: Top value
# Protocol: Test compounds were dissolved in DMSO to prepare 10 mM stock solution, which was then diluted to the predetermined test concentrations using kinase buffer (50 mM HEPES, 1 mM EDTA, 10 mM MgCl2, 0.01% Brij-35, pH = 7.5). Into a 384-well plate were added 5 µL of AMPKα1β1γ1 (CARNA, 02-113), 2.5 µL of the diluted test compound solution, and 2.5 µL of a mixture of Ulight-CRBN and ATP, resulting in the following final concentrations: AMPKα1β1γ1 at 1.6 mg/L, Ulight-CRBN at 5 nM, and ATP at 0.1 mM. The components were mixed evenly, and reacted at room temperature for 1 hour. Subsequently, 5 µL of LANCE Detection Buffer (CR97-100, PerkinElmer) containing 40 mM EDTA was added. After standing for 5 minutes, 5 µL of 4× Eu-anti-phospho-CREB Antibody (TRF0200-M, PerkinElmer) was added, and the mixture was allowed to stand at room temperature for 1 h. The values of samples in each well were read using a microplate reader in TR-FRET mode (excitation wavelength: 320 nm; emission wavelengths: 665 nm and 615 nm). By comparing the values with those of the blank control group (1% DMSO) and the positive control group (1 µM A769662), the relative activity of AMPKα1β1γ1 at each test compound concentration (4.57 nM, 13.72 nM, 41.15 nM, 123.46 nM, 370.37 nM, 1111.11 nM, 3333.33 nM, and 10000 nM) was calculated, with the activity of 1 µM A769662 set as 100%. The data were analysed in GraphPad Prism 9 using a Dose-response-Stimulation four-parameter regression model to obtain the Top and EC50 values for the test compounds. [drawing 522] has a structure of A769662.
# [1] = AMPKα1β1γ1 1.6 mg/L, ATP 0.1 mM, 1 hour at room temperature, four-parameter regression, read-out: EC50
# T1 sequence (Q13131 whole entry): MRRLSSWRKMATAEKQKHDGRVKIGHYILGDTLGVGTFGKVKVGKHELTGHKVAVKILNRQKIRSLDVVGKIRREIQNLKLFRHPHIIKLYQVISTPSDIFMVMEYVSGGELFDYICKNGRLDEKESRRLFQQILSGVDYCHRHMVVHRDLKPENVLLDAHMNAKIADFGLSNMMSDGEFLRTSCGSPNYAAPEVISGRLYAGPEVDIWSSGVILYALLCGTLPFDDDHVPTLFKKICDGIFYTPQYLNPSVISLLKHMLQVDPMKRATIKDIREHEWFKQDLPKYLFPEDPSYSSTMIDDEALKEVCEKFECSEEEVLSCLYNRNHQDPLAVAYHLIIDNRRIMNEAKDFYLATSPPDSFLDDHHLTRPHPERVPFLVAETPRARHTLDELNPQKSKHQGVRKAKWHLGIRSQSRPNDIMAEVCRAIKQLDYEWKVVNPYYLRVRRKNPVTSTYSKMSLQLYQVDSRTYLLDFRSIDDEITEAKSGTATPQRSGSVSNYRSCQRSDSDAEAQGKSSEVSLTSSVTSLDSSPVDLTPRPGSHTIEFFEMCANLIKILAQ
# T1 sequence (Q9Y478 whole entry): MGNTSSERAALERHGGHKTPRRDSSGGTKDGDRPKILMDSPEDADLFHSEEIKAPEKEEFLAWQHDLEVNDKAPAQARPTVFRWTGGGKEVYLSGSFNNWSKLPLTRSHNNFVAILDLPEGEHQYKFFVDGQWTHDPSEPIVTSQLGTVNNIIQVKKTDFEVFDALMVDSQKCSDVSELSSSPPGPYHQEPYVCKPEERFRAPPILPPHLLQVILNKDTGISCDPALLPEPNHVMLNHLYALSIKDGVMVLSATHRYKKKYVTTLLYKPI
# T1 sequence (P54619 whole entry partner): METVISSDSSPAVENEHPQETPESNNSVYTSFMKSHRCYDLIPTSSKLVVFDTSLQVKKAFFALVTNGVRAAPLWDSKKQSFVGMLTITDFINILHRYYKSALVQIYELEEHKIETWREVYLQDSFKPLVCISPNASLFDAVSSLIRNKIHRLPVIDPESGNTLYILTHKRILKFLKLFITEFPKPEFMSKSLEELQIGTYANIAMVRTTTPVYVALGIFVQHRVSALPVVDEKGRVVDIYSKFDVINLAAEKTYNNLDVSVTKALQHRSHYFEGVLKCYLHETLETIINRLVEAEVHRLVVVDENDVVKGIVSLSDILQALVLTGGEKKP
Compound,Emax,EC50 [1],EC50
O=C(Nc1ncc[nH]1)c1c[nH]c2cc(Cl)c(-c3ccc(-c4ccccc4)cc3)cc12 [Compound 13],> 100%,> 800 nM,–
O=C(NCc1ccco1)c1c(O)[nH]c2cc(Cl)c(-c3ccc(C4(CO)CC4)cc3)cc12 [Compound 31],> 100%,200 to 800 nM,–
O=C(O)C(=O)c1c[nH]c2cc(Cl)c(-c3ccc(C4(O)CCC4)cc3)nc12 [Compound 3],50 to 70%,> 800 nM,–
O=C(NCc1ccco1)c1c(O)[nH]c2cc(Cl)c(-c3ccc(-c4ccccc4O)cc3)cc12 [Compound 37],> 100%,200 to 800 nM,–
O=C(NCc1ncco1)c1c[nH]c2cc(Cl)c(-c3ccc(C4(CO)CC4)cc3)cc12 [Compound 16],70 to 100%,200 to 800 nM,–
O=C(Nc1cc[nH]n1)c1c[nH]c2cc(Cl)c(-c3ccc(C4(O)CCC4)cc3)cc12 [Compound 33],> 100%,200 to 800 nM,–
O=C(Nc1cc[nH]n1)c1c[nH]c2cc(Cl)c(-c3ccc(-c4ccccc4O)cc3)cc12 [Compound 34],> 100%,–,200 to 800 nM
CNC(=O)C(=O)c1c[nH]c2cc(Cl)c(-c3ccc(C4(CO)CC4)cc3)cc12 [Compound 18],50 to 70%,200 to 800 nM,–
Cn1ccc2cc(-c3cc4c(C(=O)NCc5ccco5)c(O)[nH]c4cc3Cl)ccc21 [Compound 19],> 100%,200 to 800 nM,–
Cn1ccc2cc(-c3cc4c(C(=O)C(=O)O)c[nH]c4cc3Cl)ccc21 [Compound 5],70 to 100%,< 200 nM,–
O=C(NCc1nnn[nH]1)c1c[nH]c2cc(Cl)c(-c3ccc(C4(CO)CC4)cc3)cc12 [Compound 35],> 100%,< 200 nM,–
O=C(O)C(=O)c1c[nH]c2cc(Cl)c(-c3ccc(-c4ccccc4O)cc3)cc12 [Compound 4],50 to 70%,< 200 nM,–
O=C(NCc1ccccn1)c1c[nH]c2cc(Cl)c(-c3ccc(C4(O)CCC4)cc3)cc12 [Compound 9],> 100%,> 800 nM,–
O=C(Nc1ncco1)c1c[nH]c2cc(Cl)c(-c3ccc(-c4ccccc4)cc3)cc12 [Compound 24],> 100%,–,> 800 nM
O=C(NCc1cnoc1)c1c[nH]c2cc(Cl)c(-c3ccc(C4(O)CCC4)cc3)cc12 [Compound 12],> 100%,> 800 nM,–
O=C1Nc2cc(Cl)c(-c3ccc(C4(CO)CC4)cc3)cc2C1=CNCc1ccco1 [Compound 21],< 50%,> 800 nM,–
Cn1ccc2cc(-c3cc4c(cc3Cl)NC(=O)C4(C)C(=O)NCc3ccco3)ccc21 (centres unmarked) [Compound 22],–,> 800 nM,–

Compound,Emax,EC50 [1],EC50
O=C(O)C(=O)c1c[nH]c2cc(Cl)c(-c3ccc(C4(CO)CC4)cc3)cc12 [Compound 6],> 100%,< 200 nM,–
O=C(NCc1ccco1)c1c[nH]c2cc(Cl)c(-c3ccc(C4(CO)CC4)cc3)cc12 [Compound 14],> 100%,> 800 nM,–
O=C(NCc1cccs1)c1c[nH]c2cc(Cl)c(-c3ccc(C4(CO)CC4)cc3)cc12 [Compound 15],> 100%,> 800 nM,–
O=C(NCC1COC1)c1c[nH]c2cc(Cl)c(-c3ccc(C4(O)CCC4)cc3)cc12 [Compound 10],50 to 70%,> 800 nM,–
O=C(NCc1ccco1)c1c[nH]c2cc(Cl)c(-c3ccc(-c4ccccc4O)cc3)cc12 [Compound 36],50 to 70%,< 200 nM,–
O=C(Nc1ccn[nH]1)c1c[nH]c2cc(Cl)c(-c3ccc(C4(CO)CC4)cc3)cc12 [Compound 23],> 100%,< 200 nM,–
O=C(O)C(=O)c1c[nH]c2cc(Cl)c(-c3ccc(C4(O)CCC4)cc3)cc12 [Compound 2],70 to 100%,< 200 nM,–
CN(Cc1cccs1)C(=O)c1c[nH]c2cc(Cl)c(-c3ccc(C4(CO)CC4)cc3)cc12 [Compound 25],< 50%,–,> 800 nM
O=C(NCc1ccno1)c1c[nH]c2cc(Cl)c(-c3ccc(C4(O)CCC4)cc3)cc12 [Compound 11],70 to 100%,200 to 800 nM,–
COc1ccc(-c2cc3c(C(=O)C(=O)O)c[nH]c3cc2Cl)cc1 [Compound 7],70 to 100%,200 to 800 nM,–
O=C(O)C(=O)c1c[nH]c2cc(Cl)c(-c3ccc(-c4ccccc4)cc3)cc12 [Compound 8],< 50%,< 200 nM,–
Cn1ccc2cc(-c3cc4c(C(=O)NCc5ncco5)c(O)[nH]c4cc3Cl)ccc21 [Compound 32],70 to 100%,200 to 800 nM,–
Cn1ccc2cc(-c3cc4c(C(=O)NCC(=O)O)c(O)[nH]c4cc3Cl)ccc21 [Compound 20],> 100%,200 to 800 nM,–
CN(C(=O)c1c[nH]c2cc(Cl)c(-c3ccc(C4(CO)CC4)cc3)cc12)c1cc[nH]n1 [Compound 27],> 100%,–,> 800 nM
COC(=O)C(=O)c1c[nH]c2cc(Cl)c(-c3ccc(C4(CO)CC4)cc3)cc12 [Compound 17],70 to 100%,< 200 nM,–
O=C(O)Cc1c[nH]c2cc(Cl)c(-c3ccc(C4(O)CCC4)cc3)nc12 [Compound 1],50 to 70%,> 800 nM,–
